In brackets after ≈: the same amount, converted by molar mass. Several values for one entry are separate records, joined by “and”; a condition that tells them apart may be missing. Equal entries are not always repeated. Where two headings read alike, the source gives them in different places.
Legend:
[1] = tested on: MRC-5SV2 (human lung fibroblast cell line); assay: Toxicity against MRC-5SV2; type: cell-based; conditions: MRC5 cells
Method: (§1) ADME and toxicity for compounds were measured according to procedures outlined in the manuscript submitted in parallel to this one;2 other procedures were used for those compounds analysed by Monash University (in vitro ADME) or UCL (toxicity), both described in the main

[2] = tested on: Staphylococcus aureus NCTC 13373 (mecA-positive; methicillin-resistant); assay: In vitro antibacterial activity, MIC (UCL School of Pharmacy assay), MRSA; type: cell-based; conditions: for MIC: Staphylococcus aureus
In short: (§2)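 Broth microdilution MIC in isosensitest broth; inoculum from overnight tryptone soya agar culture suspended in PBS to A600 0.1 (~1 × 10^8 CFU/mL), then diluted 1:100. Compounds tested as 2-fold series from 32 to 0.03 μg/mL, DMSO at most 2%; vancomycin as quality control.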

[3] = Human plasma protein binding (PPB); type: in vitro ADME; conditions: human, plasma, human plasma, NEU; read-out: Human PPB (NEU) (converted)
Aqueous solubility = type: physicochemical; conditions: thermodynamic from solid; NEU; read-out: Aqueous Solubility (NEU)
[4] = tested on: PMM (primary mouse macrophages); assay: Toxicity against PMM; type: cell-based; conditions: PMM
Method: as §1

[5] = tested on: Enterococcus faecalis ATCC 51299 (vanA-positive; vancomycin-resistant); assay: In vitro antibacterial activity, MIC (UCL), VRE; type: cell-based; conditions: read-out: VRE MIC (UCL)
In short: as §2

[6] = Human liver microsome intrinsic clearance; type: in vitro ADME; conditions: human liver microsomes, NEU; read-out: HLM CLint (NEU)
[7] = Rat hepatocyte intrinsic clearance; type: in vitro ADME; conditions: rat hepatocytes, NEU; read-out: Rat Hep CLint (NEU)
LogD7.4 (Chrom Log D) = type: physicochemical; conditions: chromatographic system (Chrom Log D); pH 7.4, NEU; read-out: LogD 7.4 (NEU)
U2OS = assay: Toxicity against U2OS; type: cell-based; conditions: U2OS cells
Excerpt: Supplement id3c00286_si_002.xlsx, sheet "Series 2 Data" | column: U2OS TC50 (uM)

THP1 = assay: Toxicity against THP1; type: cell-based; conditions: THP1 cells
Excerpt: Supplement id3c00286_si_002.xlsx, sheet "Series 2 Data" | column: THP1 TC50 (uM)

p38 kinase = tested on: p38 kinase; set-up: method as in earlier work; conditions: cited from earlier work
[8] = Distribution coefficient estimation using chromatography, gLogD (Monash); type: physicochemical
Excerpt: Partition coefficient values (LogD) of the test compounds were estimated at pH 7.4 by the correlation of their chromatographic retention properties against the characteristics of a series of standard compounds with known partition coefficient values. The method employed is a gradient HPLC-based derivation of the method developed by Lombardo.[42] […]
c) Distribution Coefficient Estimation using Chromatography (gLogDpH)
Partition coefficient values (LogD) of the test compounds were estimated at pH 7.4 by correlation of their
chromatographic retention properties against the characteristics of a series of standard compounds with known
partition coefficient values. […]
(§3) In Vitro Intrinsic Clearance […]
(§4) Experimental results are tabulated on the following page(s).
(§5) (1 picture or pasted object on this page, not shown here)

[9] = In vitro metabolic stability, rat liver microsomes (Monash); type: in vitro ADME
Method: (§6) The metabolic stability assay was performed by incubating each test compound with a suspension of liver microsomes (0.4 mg/mL protein, 1 μM substrate, 37 °C). Microsomes were purchased from XenoTech. The metabolic reaction was initiated by the addition of an NADPH-regenerating system and quenched at various time points over a 60 min incubation by the addition of acetonitrile containing metolazone as an internal standard. Control samples (containing no NADPH) were included (quenched at 2, 30, and 60 min) to monitor for potential degradation in the absence of cofactor. […]
(§7) d) In Vitro Metabolic Stability
(§8) The metabolic stability assay was performed by incubating each test compound with a suspension of liver
(§9) microsomes (0.4 mg/mL, 37°C). The metabolic reaction was initiated by the addition of an NADPH-regenerating
(§10) system and quenched at various time points over a 60 minute incubation by the addition of acetonitrile containing
(§11) metolazone as internal standard. Control samples (containing no NADPH) were included (quenched at 2, 30 and 60
(§12) minutes) to monitor for potential degradation in the absence of cofactor.
(§13) The human liver microsomes used in this experiment were supplied by XenoTech, lot # 1710084.The rat liver
(§14) microsomes used in this experiment were supplied by XenoTech, lot # 1610290. Microsomal incubations were
(§15) performed at a substrate concentration of 1 µM.
(§16) Data analysis and interpretation:
(§17) Substrate depletion as a function of time was analysed as described by Obach (1999) Drug Metab. Dispos., 27:1350-
(§18) 1359. Intrinsic clearance (CLint) values were classified at the limits of low and high clearance bands based on a
(§19) rearrangement of the well stirred model of hepatic elimination. It should be noted that the potential impact of
(§20) compound binding (either in microsomes or in blood) on the relationship between in vitro intrinsic clearance and
(§21) hepatic clearance in vivo has not been accounted for in these studies.
(§22) In Vitro Intrinsic Clearance
(§23) Species (µL/min/mg protein)
(§24) Low Clearance High Clearance
as §4, §5

[10] = In vitro metabolic stability, human liver microsomes (Monash); type: in vitro ADME
Method: as §6, §7, §8, §9, §10, §11, §12, §13, §14, §15, §16, §17, §18, §19, §20, §21, §22, §23, §24, §4, §5

[11] = Kinetic solubility estimation using nephelometry (Monash); type: physicochemical; conditions: for solubility kinetic at 30 min: kinetic from dmso stock
Method: Compound in DMSO was spiked into either pH 6.5 phosphate buffer or 0.01 M HCl (approximately pH 2.0) with the final DMSO concentration being 1%. […]
b) Kinetic Solubility Estimation using Nephelometry (SolpH)
Compound in DMSO was spiked into either pH 6.5 phosphate buffer or 0.01 M HCl (approx pH 2.0) with the final
DMSO concentration being 1%. After 30 minutes had elapsed, samples were then analysed via Nephelometry to
determine a solubility range. See Bevan and Lloyd (2000) Anal Chem, 72:1781-1787. […]
as §3, §4, §5

[12] = tested on: Escherichia coli ATCC 25922; assay: CO-ADD antibacterial assay, E. coli; type: cell-based
Method: (§25) Hit Confirmation of active compounds by whole cell growth inhibition assays was conducted as an 8-point dose response to determine the Minimum Inhibitory Concentration (MIC), in duplicate (n=2). The inhibition of growth is measured against those microorganisms that […]
(§26) Included in the Hit Confirmation were 5 bacteria: Escherichia coli, Klebsiella pneumoniae, Acinetobacter baumannii, Pseudomonas aeruginosa and Staphylococcus aureus, and 2 fungi Candida albicans and Cryptococcus neoformans. […]
(§27) Assay Parameters Bacteria Fungi HEK293 Haemolysis […]
(§28) Duplicate (n=2) Duplicate (n=2) Duplicate (n=2) Duplicate (n=2)
(§29) QC Control MIC: Control MIC: Control CC50: Control HC10:
(§30) Non-Binding Non-Binding TC, 384-well Polypropylene […]
(§31) All bacteria were cultured in Cation-adjusted Mueller Hinton broth (CAMHB) at 37 °C overnight. […] The resultant mid-log phase cultures were diluted (CFU/mL measured by OD600), then added to each well of the compound containing plates, giving a cell density of 5×10^5 CFU/mL and a total volume of 50 µL. […]
(§32) Inhibition of bacterial growth was determined measuring absorbance at 600 nm (OD600), using a Tecan M1000 Pro monochromator plate reader. The percentage of growth inhibition was calculated for each well, using the negative control (media only) and positive control (bacteria without inhibitors) on the same plate as references. […]

[13] = tested on: Klebsiella pneumoniae ATCC 700603; assay: CO-ADD antibacterial assay, K. pneumoniae; type: cell-based
Method: as §25, §26, §27, §28, §29, §30, §31, §32

[14] = tested on: Acinetobacter baumannii ATCC 19606; assay: CO-ADD antibacterial assay, A. baumannii; type: cell-based
Method: as §25, §26, §27, §28, §29, §30, §31, §32

[15] = tested on: Pseudomonas aeruginosa ATCC 27853; assay: CO-ADD antibacterial assay, P. aeruginosa; type: cell-based
Method: as §25, §26, §27, §28, §29, §30, §31, §32

[16] = Rat liver microsome (RLM) metabolic stability (UNC); type: in vitro ADME; conditions: rat liver microsomes
Excerpt: Supplement id3c00286_si_002.xlsx, sheet "Series 2 Data" | column: RLM Clint (mL/min/kg) (UNC); RLM t1/2 (min) (UNC); RLM E (UNC)

[17] = Mouse liver microsome (MLM) metabolic stability (UNC); type: in vitro ADME
Excerpt: Supplement id3c00286_si_002.xlsx, sheet "Series 2 Data" | column: MLM Clint (mL/min/kg) (UNC); MLM t1/2 (min) (UNC); MLM E (UNC)

[18] = NADPH, read-out: CLint, in vitro

COc1ccn2c(-c3ccc(F)cc3)c(-c3ccccn3)nc2c1 [OSA_000858]
MRC5 TC50 [1]: 3.62 µM
MIC ([2]; UCL, read-out: MRSA MIC (UCL)): 16 µg/mL (≈ 50.1 µM)
fraction unbound [3]: 0.054
solubility (Aqueous solubility): 85 µM (≈ 27.1 µg/mL)
PMM TC50 [4]: 8 µM
MIC [5]: > 32 µg/mL
microsomal CLint [6]: > 300 µL/min/mg
hepatocyte CLint [7]: 25.1 µL/min/1e6 cells
chromatographic logD (LogD7.4 (Chrom Log D)): 2.9
U2OS TC50 (U2OS): 1.28 µM
THP1 TC50 (THP1): 7.63 µM

c1ccc(-c2nc3n(c2-c2ccc4c(c2)OCO4)CCC3)nc1 [compound 812]
inhibition of p38 kinase (p38 kinase): no inhibition
activity against MRSA, in words [2]: MRSA-inactive
MIC ([2]; 16 h, read-out: MRSA MIC): > 32 µg/mL
MIC ([2]; read-out: MRSA MIC): 32 µg/mL (≈ 105 µM)
gLogD at pH 7.4 [8]: 1.5
microsomal CLint at 1 µM [9, 18]: 59 µL/min/mg
half-life at 1 µM ([9]; NADPH, read-out: T1/2): 29 min
microsomal CLint at 1 µM [10, 18]: 28 µL/min/mg
half-life at 1 µM ([10]; NADPH, read-out: T1/2): 62 min
Sol 6.5 ([11]; pH 6.5 phosphate buffer): 50 to 100 µg/mL

Colistin - Sulfate
MIC Escherichia coli [12]: 0.125 µg/mL
MIC Klebsiella [13]: 0.25 µg/mL
MIC Acinetobacter baumannii [14]: 0.25 µg/mL
MIC Pseudomonas aeruginosa [15]: 0.25 µg/mL

c1ccc(-c2nc3n(c2-c2ccc4c(c2)OCO4)CCC3)nc1 [OSA_000812]
MIC ([2]; UCL, read-out: MRSA MIC (UCL)): 32 µg/mL (≈ 105 µM)
chromatographic logD ([8]; gradient HPLC retention against standard compounds, pH 7.4): 1.5
RLM Clint (Monash) ([9]; Monash): 59 µL/min/mg
RLM t1/2 (Monash) ([9]; Monash): 29 min
CLint scaled [16]: 142 mL/min/kg
RLM E (UNC) [16]: 0.669
half-life ([16]; read-out: RLM t1/2 (UNC)): 17.7 min
HLM Clint (Monash) ([10]; Monash): 28 µL/min/mg
HLM t1/2 (Monash) ([10]; Monash): 62 min
MLM Clint (UNC) ([17]; mouse liver microsomes): 677 mL/min/kg
MLM E (UNC) ([17]; mouse liver microsomes): 0.864 and 0.883
MLM t1/2 (UNC) ([17]; mouse liver microsomes): 8.3 min
CLint scaled ([17]; mouse, liver microsomes): 569 mL/min/kg
half-life ([17]; mouse, liver microsomes, read-out: MLM t1/2 (UNC)): 9.87 min
solubility kinetic at 30 min ([11]; 0.01 M HCl, simulated gastric fluid, pH 2.0, read-out: Sol (pH 2.0) (Monash)): > 100 µg/mL
solubility kinetic at 30 min ([11]; pH 6.5 phosphate buffer, pH 6.5, aqueous buffer, read-out: Sol (pH 6.5) (Monash)): 50 to 100 µg/mL (≈ 164 to 328 µM)

COc1ccn2c(-c3ccccc3)c(-c3ccccn3)nc2c1 [OSA_000860]
MRC5 TC50 [1]: 3.92 µM
MIC ([2]; UCL, read-out: MRSA MIC (UCL)): 8 µg/mL (≈ 26.5 µM)
fraction unbound [3]: 0.028
solubility (Aqueous solubility): 79 µM (≈ 23.8 µg/mL)
PMM TC50 [4]: 8 µM
MIC [5]: 32 µg/mL (≈ 106 µM)
microsomal CLint [6]: 224 µL/min/mg
hepatocyte CLint [7]: 23.9 µL/min/1e6 cells
chromatographic logD (LogD7.4 (Chrom Log D)): 3.1
U2OS TC50 (U2OS): 0.73 µM
THP1 TC50 (THP1): 5.01 µM
